From PubChem BioAssay (NCI)
“And” between values parts separate entries of the source, which are not always exact repeats. Equal values may be shown once.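 Grown in 96-well plates, cells were treated for 48 hours with each compound at five concentrations. Insufficient inhibition: endpoint recorded as highest concentration tested. Abbreviation: GI50, concentration required for 50% inhibition of growth. TGI: total growth inhibition.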

Experiments:
Assay in all cases: DTP human tumour cell line panel, 48 h
[1] = test system: SK-MEL-5 melanoma
[2] = test system: RXF 393 renal
[3] = test system: NCI-H23 lung
[4] = test system: K-562 leukemia
[5] = test system: OVCAR-3 ovarian
[6] = test system: HS 578T breast
[7] = test system: SW-620 colon
[8] = test system: UACC-62 melanoma
[9] = test system: MALME-3M melanoma
[10] = test system: MOLT-4 leukemia

Row | SMILES | GI50 [1] | TGI [1] | GI50 [2] | TGI [2] | GI50 [3] | TGI [3] | GI50 [4] [µM] | TGI [4] [µM] | GI50 [5] | TGI [5] | GI50 [6] [µM] | TGI [6] [µM] | GI50 [7] | TGI [7] | GI50 [8] | TGI [8] | GI50 [9] | TGI [9] | GI50 [10] | TGI [10]
1 | Cc1cc(N(CCNc2ccnc3cc(Cl)ccc23)Cc2ccc3c(c2)OCO3)nc(N2CCCC2)n1 | 1.76 µM | 3.21 µM | 1.28 µM | 2.74 µM | 2 µM | 6.25 µM | 0.7 | 3.2 | 1.74 µM | 3.81 µM | 1.72 | 5.02 | 1.19 µM | 2.94 µM | 1.88 µM | 3.49 µM | 1.89 µM | 3.54 µM | 1.86 µM | 7.03 µM
2 | COC(=O)CC1=C(C)/C(=C/c2[nH]c(-c3ccc[nH]3)cc2OC)N=C1C | 0.0461 µM | 0.107 µM | 0.0611 µM | 1.08 µM | 0.325 µM | 3.09 µM | 0.218 | 10.6 | 0.204 µM | 1.36 µM | 0.423 | 2.14 | 0.148 µM | 1.36 µM | 0.216 µM | 0.56 µM | 0.72 µM | 2.35 µM | 0.17 µM | 3.48 µM
3 | CN(C)c1ccc2[nH]c3c(C(N)=O)cc(=O)c(=O)c=3oc2c1 | 1.8 µM | 3.55 µM | 1.89 µM | 7.24 µM | 1.1 µM | 25.8 µM | 0.358 | > 100 | 0.508 µM | 6.85 µM | 0.973 | 8.31 | 2.02 µM | > 100 µM | 1.74 µM | 5.32 µM | 1.81 µM | 4.45 µM | 0.861 µM | 8.53 µM
4 | CSc1nc2c(c(=O)n1C)C(c1ccccc1)C1=C(N2)/C(=C/c2ccccc2)CCC1 (configuration not stated) | 3.58 µM | > 100 µM | 2.35 µM | 6.21 µM | 7.1 µM | > 100 µM | 2.86 | > 100 | 4.41 µM | > 100 µM | 10.2 | 93.8 | 2.53 µM | 6.81 µM | 7.95 µM | > 100 µM | 5.87 µM | > 100 µM | 4.9 µM | > 100 µM
5 | C(=N\Nc1ccc2ccccc2n1)/c1ccccn1 | 0.694 µM | 3.67 µM | 0.443 µM | > 52 µM | 0.857 µM | > 100 µM | 0.487 | > 39.1 | 0.351 µM |  | 2.36 | > 52.9 | 0.644 µM | > 43.3 µM | 0.877 µM | 5.54 µM | 1.35 µM | 8.34 µM | 0.353 µM | > 21.8 µM
6 | CC/C=C\C[C@H]1C/C=C2/C(=O)C(Cl)=C[C@@H]2C/C=C\CCCC(=O)O1 | 0.379 µM | 0.759 µM | 0.4 µM | 0.802 µM | 0.459 µM | 1.22 µM | 0.0961 | 3.14 | 0.153 µM | 0.677 µM | 0.698 | 25 | 0.0995 µM | 0.596 µM | 0.28 µM | 1.2 µM | 0.398 µM | 1.22 µM | 0.329 µM | 2.2 µM
7 | COc1ccc(-c2[nH]ncc2Nc2cc(OC)c(OC)c(OC)c2)cc1 | 1.34 µM | 23 µM | 1.92 µM | > 22.3 µM | 4.04 µM | > 100 µM | 0.42 | > 52.3 | 0.962 µM | 3.69 µM | 1.3 | 4.65 | 0.558 µM | > 100 µM | 0.704 µM | 69.8 µM | 2.04 µM | > 26.1 µM | 2.12 µM | 63.7 µM
8 | N=C(CC(=O)Nc1ccccn1)c1ccccc1 |  | > 100 µM |  | > 100 µM |  | > 100 µM |  | > 100 |  | > 100 µM |  | > 100 |  | > 100 µM |  | > 100 µM |  | > 100 µM |  | > 100 µM
9 | O=C1NC(=NCCc2ccc(Br)cc2)S/C1=C\c1ccc2ncccc2c1 | > 21 µM | > 25 µM | > 20.9 µM | > 25 µM | > 25 µM | > 25 µM | 24.6 | > 25 | > 25 µM | > 25 µM | 11 | > 25 | > 25 µM | > 25 µM | > 25 µM | > 25 µM | > 21.7 µM | > 25 µM | 19.7 µM | > 25 µM
10 | CCS(=O)(=O)c1ccc(OC)c(Nc2ncc(-c3cccc(F)c3)o2)c1 | > 25 µM | > 25 µM | > 20.8 µM | > 25 µM | > 25 µM | > 25 µM | > 25 | > 25 | > 25 µM | > 25 µM | 2.5 | > 22.3 | > 25 µM | > 25 µM | > 25 µM | > 25 µM | > 25 µM | > 25 µM | > 25 µM | > 25 µM
11 | CN(CCCCCl)P(=O)(OCc1ccc([N+](=O)[O-])o1)OCC1OC(n2cc([N+](=O)[O-])c(=O)[nH]c2=O)CC1O (configuration not stated) | > 100 µM | > 100 µM | > 100 µM | > 100 µM | 75.2 µM | > 100 µM | 49.8 | > 100 | 43.6 µM | > 100 µM | > 100 | > 100 | > 100 µM | > 100 µM | 49.2 µM | > 100 µM | > 100 µM | > 100 µM | 25.1 µM | > 100 µM
12 | COc1ccc2nc3ccccc3c(NCCNCC(C)O)c2c1 (configuration not stated) | 1.03 µM | 2.3 µM | 0.373 µM | 1.74 µM | 0.367 µM | 2.05 µM | 0.33 |  | 0.449 µM | 9.4 µM | 1.1 | 12.2 | 0.3 µM | 12.5 µM | 0.354 µM | 2.08 µM | 0.426 µM | 1.72 µM | 0.368 µM | 
13 | COc1cc(C(=O)n2nc(N)c3c(C)cc(C)nc32)cc(OC)c1OC | 35.2 µM | > 100 µM | 25.3 µM | > 100 µM | > 100 µM | > 100 µM | 0.488 | > 100 | > 88.9 µM | > 100 µM | > 100 | > 100 | 2.48 µM | > 100 µM | 54.1 µM | > 100 µM | > 100 µM | > 100 µM | 7.26 µM | > 100 µM
14 | CNc1cc(-c2cccc(OC(F)(F)F)c2)nc2ccc(N3CCCC3)cc12 | 1.74 µM and 1.65 µM and 1.64 µM | 3.12 µM and 3.06 µM and 3.01 µM | 1.8 µM and 1.81 µM and 1.51 µM | 3.27 µM and 3.28 µM and 2.91 µM | 1.8 µM and 1.94 µM and 1.74 µM | 3.67 µM and 3.62 µM and 3.32 µM | 0.884 | 3.61 | 1.69 µM and 1.92 µM and 1.86 µM | 3.14 µM and 3.6 µM and 3.39 µM | 1.87 | 3.95 | 1.56 µM and 1.84 µM and 1.75 µM | 3.08 µM and 3.79 µM and 3.6 µM | 1.75 µM and 1.76 µM and 1.7 µM | 3.36 µM and 3.16 µM and 3.18 µM | 1.78 µM and 1.92 µM and 1.7 µM | 3.24 µM and 3.4 µM and 3.16 µM | 2.06 µM and 1.81 µM and 1.56 µM | 4.26 µM and 4.18 µM and 3.6 µM
15 | COc1ccc(-c2c(-c3ccc(C#N)c(F)c3)nc(N3CCC(N)CC3)n(C)c2=O)cc1F | 14.9 µM | 28.4 µM | 7.41 µM | 23.6 µM | 19.6 µM | 91.6 µM | 11.6 | 28.5 | 21.7 µM | 77.4 µM | 13.2 | 44.6 | 24.2 µM | 96.2 µM | 16.1 µM | 32.9 µM | 13.4 µM | 27.5 µM | 15.5 µM | 46.2 µM
16 | CCCCCCCCN=C(NCCCCCCCC)SCc1cccc2ccccc12 | 1.47 µM | 2.8 µM | 1.42 µM | 2.78 µM | 1.14 µM | 2.52 µM | 0.975 | 3.26 | 1.72 µM | 3.21 µM | 1.61 | 3.81 | 1.65 µM | 3.36 µM | 1.72 µM | 3.22 µM | 1.46 µM | 3.68 µM | 1.83 µM | 4.19 µM
17 | COc1cc(C2NC(=O)C(C#N)=C(Nc3cccc(C)c3)S2)ccc1O (configuration not stated) | > 100 µM | > 100 µM | > 100 µM | > 100 µM | > 100 µM | > 100 µM | > 100 | > 100 | > 100 µM | > 100 µM | > 100 | > 100 | > 100 µM | > 100 µM | > 100 µM | > 100 µM | > 100 µM | > 100 µM | > 100 µM | > 100 µM
18 | COc1ccc(/C=C/c2ccnc3ccccc23)cc1OC |  | 28 µM |  | 27.2 µM |  | 45.5 µM |  | 22.1 |  | 26.6 µM |  | 81.6 |  | 29.1 µM |  | 29.4 µM |  | 30.7 µM |  | 45.1 µM
19 | COc1cc(-c2ccc[nH]2)[nH]c1/C=C1\N=C(C)C(CC(=O)OCC(C)(C)C)=C1C | 0.137 µM | 0.279 µM | 0.258 µM | 1.21 µM | 0.441 µM | 2.22 µM | 0.34 | 1.37 | 0.254 µM | 1.15 µM | 0.256 | 1.91 | 0.192 µM | 1.48 µM | 0.211 µM | 0.555 µM | 0.4 µM | 1.69 µM | 0.242 µM | 1.32 µM
